We go through one compound from publication PMC5446859 (2017).

The test system of this assay is DNAzyme-aptamer (DNA, aptamer) TGGGTAGGGCGGGTTGGGAAAGTTGGGCACGTGTTGTCTCTCTGTGTCTCGTGCCCTTCGCTAGGCCCAC
In words: peroxidase activity (TMB), blocker hybridization. The note with it: 120 mM NaCl, 5 mM KCl, 2.5 mM MgCl2; 10 mM Tris-HCl pH 8; hemin prevents hybridization of blocker; qualitative, indirect.

In the case of `C=CC1=C(C)C2=Cc3c(C=C)c(C)c4[n]3[Fe]([Cl])[n]3c(c(C)c(CCC(=O)O)c3=CC3=NC(=C4)C(C)=C3CCC(=O)O)=CC1=N2`, the binding result is on record as “yes”.
